Patent publication US20060189650A1, “Novel piperidine derivatives as modulators of chemokine receptor ccr5” (priority 2002, published 2006)

Target: recombinant human CCR5 receptor (Homo sapiens, UniProt P51681)
Test: MIP-1α radioligand binding assay (scintillation proximity, CHO cell membranes)
Conditions: negative log (base 10) of IC50, displacement of 0.1 nM iodinated MIP-1α; average if tested more than once
Description: The ability of compounds to inhibit the binding of MIP-1α was assessed by an in vitro radioligand binding assay. Membranes were prepared from Chinese hamster ovary cells which expressed the recombinant human CCR5 receptor. These membranes were incubated with 0.1 nM iodinated MIP-1α, scintillation proximity beads and various concentrations of the compounds of the invention in 96-well plates. The amount of iodinated MIP-1α bound to the receptor was determined by scintillation counting. Competition curves were obtained for compounds and the concentration of compound which displaced 50% of bound iodinated MIP-1α was calculated (IC50).
In Table XV the results are presented as Pic50 values. A Pic50 value is the negative log (to base 10) of the IC50 result, so an IC50 of 1 μM (that is 1×10^−6M) gives a Pic50 of 6. If a compound was tested more than once then the data below is an average of the probative tests results.

Sequence of recombinant human CCR5 receptor (P51681 whole entry): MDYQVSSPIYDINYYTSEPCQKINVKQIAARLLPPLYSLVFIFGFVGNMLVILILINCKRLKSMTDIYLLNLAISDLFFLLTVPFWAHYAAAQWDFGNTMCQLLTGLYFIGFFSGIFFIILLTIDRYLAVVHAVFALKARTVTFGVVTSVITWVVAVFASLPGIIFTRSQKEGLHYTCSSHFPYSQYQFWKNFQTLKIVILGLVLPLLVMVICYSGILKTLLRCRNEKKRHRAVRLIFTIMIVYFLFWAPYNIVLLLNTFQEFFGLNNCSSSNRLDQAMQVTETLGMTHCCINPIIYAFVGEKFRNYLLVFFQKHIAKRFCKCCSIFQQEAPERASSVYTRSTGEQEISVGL

Compound | IC50
CS(=O)(=O)c1ccc(S(=O)(=O)CCC2CCN(CC[C@H](NC(=O)c3ccc(Cl)cc3)c3ccccc3)CC2)cc1 [Table IV Compound 2] | 1.58 nM
CS(=O)(=O)c1ccc([C@@H](CCN2CCC(CCS(=O)(=O)c3ccc(S(C)(=O)=O)cc3)CC2)c2cc(F)cc(F)c2)cc1 [Table V Compound 7, 1-{(3R)-3-(3,5-difluorophenyl)-3-[4-(methylsulfonyl)phenyl]propyl}-4-(2-{[4-(methylsulfonyl)phenyl]sulfonyl}ethyl)piperidine] | 0.631 nM
Cn1nnc(-c2ccc(S(=O)(=O)CCC3CCN(CC[C@H](c4ccc(S(C)(=O)=O)cc4)c4cc(F)cc(F)c4)CC3)cc2)n1 [Table V Compound 19, 1-{(3R)-3-(3,5-difluorophenyl)-3-[4-(methylsulfonyl)phenyl]propyl}-4-(2-{[4-(2-methyl-2H-tetrazol-5-yl)phenyl]sulfonyl}ethyl)piperidine] | 2 nM
